# Experimental data as given in patent US20220053773A1 (priority 2018, published 2022).
# Read-outs that look alike come from different tables or passages of the source. Bridge positions count the residues as written; N and C are the ends. Ends that are not written are not given here. Peptide text beside a SMILES is read from it.
# What was measured:
# [1] = system: E. coli ATCC 25922; settings: for MIC-E. coli (μM) 25922: Table 6; for MIC-E.Coli (μM) 25622: Table 9 lower part, c1
# [2] = system: N. benthamiana mesophyll protoplasts
# [3] = system: X. fastidiosa (PD strain)
# [4] = system: HL60 cells
# [5] = system: Pseudomonas WT 27853; settings: for MIC-human (μm) Pseudomonas WT 27853: Table 9 lower part, c5
# [6] = system: human erythrocytes
# [7] = system: Salmonella; settings: for MIC-human (μm) Salmonella: Table 9 lower part, c4
# [8] = system: E.Coli 14028; settings: Table 9 lower part, c2
# [9] = system: P11-resistant E. coli BL21
# [10] = system: P11-resistant E. coli ATCC 25922
# [11] = system: Xanthomonas Perforans BAA983
# [12] = system: Xanthomonas Euvesicatoria 11633
# [13] = system: Pseudomonas Resistant BAA-2114
# [14] = system: X. fastidiosa (Xf) in infected grapevines; settings: in vivo
# [15] = system: human cells (red blood cells, immune cells HL-60, lung/skin epithelial cells)
# [16] = system: human and plant gram-negative bacteria
# [17] = system: E. coli K12; settings: Table 3, K12-WT
# [18] = system: P11-resistant E. coli K12; settings: Table 3, K12-R
# [19] = system: E. coli BL21; settings: Table 3, BL21-WT
compound,measurement,setting,value
CC[C@H](C)[C@@H]1NC(=O)[C@H](CCCCN)NC(=O)[C@H](CC(C)C)NC(=O)[C@H]([C@@H](C)CC)NC(=O)[C@H](CCCCN)NC(=O)[C@H](CCCCN)NC(=O)[C@H]([C@@H](C)CC)NC(=O)[C@H](CC(C)C)NC(=O)[C@H](CCCCN)NC(=O)[C@H](CCCCN)NC(=O)[C@H](CCCNC(=N)N)NC(=O)CNC(=O)[C@@H]2CCCN2C(=O)CNC(=O)[C@H](CCCCN)NC(=O)[C@H](CCCCN)NC(=O)[C@H](CC(C)C)NC(=O)[C@H]([C@@H](C)CC)NC(=O)[C@H](CCCCN)NC(=O)[C@H](CCCCN)NC(=O)[C@H]([C@@H](C)CC)NC(=O)[C@H](CC(C)C)NC(=O)[C@H](CCCCN)NC(=O)[C@H]([C@@H](C)CC)NC(=O)[C@H](CC(C)C)NC(=O)[C@H](CCCNC(=N)N)NC(=O)CNC(=O)[C@@H]2CCCN2C(=O)CNC(=O)[C@H](CC(C)C)NC1=O [CYCLIC30P] (cyclo(GPGRKKLIKKILKILGPGRLIKLIKKILKK)),MIC-E. coli (μM) 25922,[1],12 (2) μM
same,MIC-E.Coli (μM) 25622,[1],12(2) μM
CC[C@H](C)[C@H](NC(=O)[C@H](CCCCN)NC(=O)[C@H](CC(C)C)NC(=O)[C@@H]1CSSC[C@H](NC(=O)[C@H](CC(C)C)NC(=O)[C@H](CCCCN)NC(=O)[C@@H](NC(=O)[C@@H](N)CC(C)C)[C@@H](C)CC)C(=O)N[C@@H](CCCCN)C(=O)N[C@@H](CCCCN)C(=O)N[C@@H]([C@@H](C)CC)C(=O)N[C@@H](CC(C)C)C(=O)N[C@@H](CCCCN)C(=O)N[C@@H](CCCCN)C(=O)NCC(=O)N2CCC[C@H]2C(=O)NCC(=O)N[C@@H](CCCNC(=N)N)C(=O)N[C@@H](CCCCN)C(=O)N[C@@H](CCCCN)C(=O)N[C@@H](CC(C)C)C(=O)N[C@@H]([C@@H](C)CC)C(=O)N[C@@H](CCCCN)C(=O)N[C@@H](CCCCN)C(=O)N1)C(=O)N[C@@H](CC(C)C)C(=O)O [CYS26P] (H-LIKLCKKILKKGPGRKKLIKKCLKIL-OH; disulfide 5-22),"phytotoxicity, viability of N. benthamiana mesophyll protoplasts",[2],low phytotoxcicity
same,MIC (μM) X. fastidiosa (PD strain),[3],>20 µM
same,toxicity to HL60 cells,[4],did not demonstrate toxicity
same,MIC-human bacteria (μM) Pseudomonas WT,"[5]; Table 9 upper part, c6",>20 µM
same,MIC-E. coli (μM) 25922,[1],4.3 ± 0.4 µM
same,toxicity to human erythrocytes,[6],did not demonstrate toxicity
same,MIC-human bacteria (μM) Salmonella,"[7]; Table 9 upper part, c5",>20 µM
"CC[C@H](C)[C@H](NC(=O)[C@H](CCCCN)NC(=O)[C@H](CC(C)C)NC(=O)[C@@H](NC(=O)[C@H](CCCCN)NC(=O)[C@H](CCCCN)NC(=O)[C@@H](NC(=O)[C@H](CC(C)C)NC(=O)[C@H](CCCCN)NC(=O)[C@@H](N)CCCCN)[C@@H](C)CC)[C@@H](C)CC)C(=O)N[C@@H](CC(C)C)C(=O)NC [Peptide 11P3, KKLIKKILKIL-(NHCH3)] (H-KKLIKKILKIL-NHMe)",MIC-E. coli (μM) 25922,[1],3.7 ± 0.5 µM
"CC[C@H](C)[C@H](NC(=O)[C@H](CCCNC(=N)N)NC(=O)[C@H](CC(C)C)NC(=O)[C@@H](NC(=O)[C@H](CCCNC(=N)N)NC(=O)[C@H](CCCNC(=N)N)NC(=O)[C@@H](NC(=O)[C@H](CC(C)C)NC(=O)[C@H](CCCNC(=N)N)NC(=O)[C@@H](N)CCCNC(=N)N)[C@@H](C)CC)[C@@H](C)CC)C(=O)N[C@@H](CC(C)C)C(=O)NC [Peptide 11P5, RRLIRRILRIL-(NCH3)] (H-RRLIRRILRIL-NHMe; N-terminus and C-terminus assumed)",MIC-E. coli (μM) 25922,[1],6.7 ± 0.9 µM
EALRSRLEKRIYILYRDTPVVKSSSRQREELLRISLRELE [Peptide 40P1],MIC-E. coli (μM) 25922,[1],>20 µM
ELLRRLLASLRRHDLLRGPGRELLRLLASLRRHDLLR [Peptide 38P1],MIC-E. coli (μM) 25922,[1],2.5 to 5 µM
HPLIKLIKKILKKGPGRKKLIKKILKILGH [Peptide 30P1],MIC-E. coli (μM) 25922,[1],0.9 to 1.25 µM
KEIVRRIEKFLRGPGRKRIVERIEKFLR [Peptide 28P8],MIC-E.Coli (μM) 14028,[8],5 to 10 µM
same,MIC-plant (μm) Xylela fastidiosa (grape),[3],1.25-2.5(2) μM
same,MIC-human (μm) Pseudomonas WT 27853,[5],5 to 10 µM
same,MIC-E. coli (μM) 25922,[1],0.8 ± 0.1 µM
KEIVRRIKEFLRGPGRKEIVRRIKEFLR [Peptide 28P7],MIC-E.Coli (μM) 14028,[8],20 µM
same,MIC-plant (μm) Xylela fastidiosa (grape),[3],2.5-5(2) μM
same,MIC-human (μm) Pseudomonas WT 27853,[5],5 to 10 µM
same,MIC-E. coli (μM) 25922,[1],4.3 µM
same,MIC-E.Coli (μM) 25622,[1],4.3 µM
"KKLIKKILKIL [Peptide P11, KKLIKKILKIL]",MIC,[9],194 ± 12.5 µM
same,MIC values BL21,[9]; BL21,194 µM
same,MIC (μM) X. fastidiosa (PD strain),[3],10 to 20 µM
same,MIC,[10],192 ± 8.3 µM
same,MIC values ATCC,[10],200 µM
KKLIKKILKILGPGRKKLIKEILKILGPGRKKLIKKILKIL [Peptide 41P1],MIC-E. coli (μM) 25922,[1],4.50 ± 0.25 µM
KLIKLIKKILKKGPGRKKLIKKILKILK [Peptide 28P4],MIC-plant (μm) Xanthomonas Perforans BAA983,[11],2.5 µM
same,MIC (μM) X. fastidiosa (PD strain),[3],3.0 ± 0.1 µM
same,MIC-plant (μm) Xanthomonas Euvesicatoria 11633,[12],2.5 µM
same,MIC-human (μm) Pseudomonas WT 27853,[5],1.3 µM
same,MIC-human (μm) Pseudomonas Resistant BAA-2114,[13],2.5 µM
same,MIC-E. coli (μM) 25922,[1],2.1 µM
same,MIC-E.Coli (μM) 25622,[1],2.1 µM
same,% Xf clearance from bark by qPCR,[14],completely clear
same,% Xf clearance from green leaves by qPCR,[14],completely clear
same,MIC-human (μm) Salmonella,[7],1.3 µM
KLIRLIREILRRGPGRRRLIREILRILK [Peptide 28P6],MIC-E.Coli (μM) 14028,[8],20 µM
same,MIC-plant (μm) Xylela fastidiosa (grape),[3],2.5-5(2) μM
same,MIC-human (μm) Pseudomonas WT 27853,[5],5 to 10 µM
same,MIC-E. coli (μM) 25922,[1],4.8 µM
same,MIC-E.Coli (μM) 25622,[1],4.8 µM
KRIVQRIKDFLRGPGRKRIVQRIKDFLR [Peptide 28P2],concentration toxic to human cells,[15],above 20 μM
same,MIC against one E. coli strain,[16],6 µM
same,MICs for human and plant bacteria,[16],1.3 to 3 µM
same,MIC-E. coli (μM) 25922,[1],6 (2) μM
same,MIC-E.Coli (μM) 25622,[1],6(2) μM
KRLIQRKRLIQRGPGRKRLIQRKRLIQR [Peptide 28P3],MIC-plant (μm) Xanthomonas Perforans BAA983,[11],20 µM
same,MIC-plant (μm) Xanthomonas Euvesicatoria 11633,[12],20 µM
same,MIC-human (μm) Pseudomonas WT 27853,[5],>20 µM
same,MIC-human (μm) Pseudomonas Resistant BAA-2114,[13],>20 µM
same,MIC-E. coli (μM) 25922,[1],>40 µM
same,MIC-E.Coli (μM) 25622,[1],>40 µM
same,MIC-human (μm) Salmonella,[7],>20 µM
LIKLIKKILKKGPGRKKLIKKILKIL [Peptide P26],"phytotoxicity, viability of N. benthamiana mesophyll protoplasts",[2],low phytotoxcicity
same,MIC,[9]; BL21,4.4 ± 0.3 µM
same,MIC (μM) X. fastidiosa (PD strain),[3],4.75 ± 0.25 µM
same,MIC-plant bacteria (μM) Xylela fastidiosa (grape),[3],>20 µM
same,toxicity to HL60 cells,[4],did not demonstrate toxicity
same,MIC,[17],1.65 ± 0.3 µM
same,MIC,[18],4.0 ± 0.6 µM
same,MIC,"[1]; Table 3, ATCC-WT",1.65 ± 0.3 µM
same,MIC-E. coli (μM) 25922,[1],1.7 ± 0.2 µM
same,MIC,[10],9.5 ± 0.7 µM
same,toxicity to human erythrocytes,[6],did not demonstrate toxicity
same,MIC,[19],1.95 ± 0.3 µM
LIRLIRRILRRGPGRRRLIRRILRIL [Peptide 26P2],MIC-E. coli (μM) 25922,[1],1.3 to 2.5 µM
LIRLIRRILRRGPGRRRLIRRILRIL [Peptide 26P-1],MIC values BL21,[9]; BL21,4 µM
same,MIC (μM) X. fastidiosa (PD strain),[3],4.75 µM
same,MIC values ATCC,[10],10 µM
LIRLLRRILRRGPGRRRLIRRLLRIL [Peptide 26P3],MIC-plant bacteria (μM) Xylela fastidiosa (grape),[3],4.8 µM
RKQLRELIERLLERIRKLGPGRREQLERLIERLERLIEKR [Peptide 40P3],MIC-E. coli (μM) 25922,[1],>20 µM
RLLEKRLRRELERELRKQGPGRRLLEKRLRRELERELRKQ [Peptide 40P2],MIC-E. coli (μM) 25922,[1],>20 µM
